Measured values: patent publication US20140058103A1, “Inhibitors of PI3K-Delta and Methods of Their Use and Manufacture” (Exelixis, Inc., priority 2010, published 2014)

Target: PI3K delta (Homo sapiens, UniProt O00329)
Assay: Luciferase-coupled chemiluminescence kinase assay (ATP consumption, KinaseGlo)
Format: biochemical
Method in brief: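 ATP consumption measured by KinaseGlo luciferase chemiluminescence after a 2 h reaction at ambient temperature, with ATP at or below the kinase KM. Ten inhibitor concentrations per curve; IC50 from four-parameter nonlinear regression.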

PI3K delta, sequence (O00329 whole entry): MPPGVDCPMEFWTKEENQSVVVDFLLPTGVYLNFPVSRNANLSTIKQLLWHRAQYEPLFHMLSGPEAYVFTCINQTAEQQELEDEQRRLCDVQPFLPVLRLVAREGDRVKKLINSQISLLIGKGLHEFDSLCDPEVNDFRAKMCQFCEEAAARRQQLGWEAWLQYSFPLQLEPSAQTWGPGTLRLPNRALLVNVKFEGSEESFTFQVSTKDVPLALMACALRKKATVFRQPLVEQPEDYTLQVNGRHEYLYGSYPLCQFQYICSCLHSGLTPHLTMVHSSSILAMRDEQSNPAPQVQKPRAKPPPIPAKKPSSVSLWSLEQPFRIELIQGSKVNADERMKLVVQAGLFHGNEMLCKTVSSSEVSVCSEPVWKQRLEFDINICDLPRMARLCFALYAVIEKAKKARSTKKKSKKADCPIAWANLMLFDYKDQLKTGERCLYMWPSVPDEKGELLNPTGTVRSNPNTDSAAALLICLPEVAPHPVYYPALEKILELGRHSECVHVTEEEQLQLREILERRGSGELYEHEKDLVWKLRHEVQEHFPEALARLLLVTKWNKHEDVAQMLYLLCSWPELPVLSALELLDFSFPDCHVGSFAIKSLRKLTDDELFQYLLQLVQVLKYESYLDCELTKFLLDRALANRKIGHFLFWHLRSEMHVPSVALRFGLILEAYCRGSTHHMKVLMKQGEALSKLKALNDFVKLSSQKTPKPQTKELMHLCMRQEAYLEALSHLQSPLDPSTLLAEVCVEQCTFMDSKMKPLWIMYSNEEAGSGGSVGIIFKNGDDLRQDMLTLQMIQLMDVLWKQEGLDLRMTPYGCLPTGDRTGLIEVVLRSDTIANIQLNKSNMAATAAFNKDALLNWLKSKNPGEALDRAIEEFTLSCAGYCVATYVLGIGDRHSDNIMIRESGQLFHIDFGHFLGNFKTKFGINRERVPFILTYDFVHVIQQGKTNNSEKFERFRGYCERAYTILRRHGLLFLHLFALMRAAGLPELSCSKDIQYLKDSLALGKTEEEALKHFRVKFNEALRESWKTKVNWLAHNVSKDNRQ
PI3K delta, sequence (P27986 whole entry partner): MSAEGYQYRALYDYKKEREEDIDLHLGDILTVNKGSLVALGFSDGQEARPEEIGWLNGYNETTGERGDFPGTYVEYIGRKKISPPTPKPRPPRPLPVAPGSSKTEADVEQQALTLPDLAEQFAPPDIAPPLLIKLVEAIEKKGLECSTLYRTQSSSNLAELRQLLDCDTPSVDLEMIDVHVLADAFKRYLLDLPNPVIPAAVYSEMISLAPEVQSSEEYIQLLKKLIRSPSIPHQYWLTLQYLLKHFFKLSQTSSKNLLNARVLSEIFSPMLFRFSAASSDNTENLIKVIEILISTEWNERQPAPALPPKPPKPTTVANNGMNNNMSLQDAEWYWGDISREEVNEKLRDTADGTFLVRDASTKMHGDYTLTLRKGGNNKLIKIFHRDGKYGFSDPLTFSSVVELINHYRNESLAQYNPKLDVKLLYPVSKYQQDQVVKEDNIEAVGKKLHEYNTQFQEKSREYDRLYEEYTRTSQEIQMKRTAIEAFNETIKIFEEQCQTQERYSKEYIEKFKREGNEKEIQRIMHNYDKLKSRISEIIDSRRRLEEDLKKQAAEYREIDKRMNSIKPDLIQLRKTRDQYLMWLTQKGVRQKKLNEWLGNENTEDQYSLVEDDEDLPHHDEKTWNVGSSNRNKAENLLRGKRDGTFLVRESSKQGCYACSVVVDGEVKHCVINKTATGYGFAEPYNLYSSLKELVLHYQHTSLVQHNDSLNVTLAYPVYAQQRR

IC50 [nM]	SMILES
50 to 250	Cn1c(-c2cccnn2)nc2c(N3CCC(n4c(=O)[nH]c5ncccc54)CC3)ncnc21 [Compound 335, 1-[1-(9-methyl-8-pyridazin-3-yl-9H-purin-6-yl)piperidin-4-yl]-1,3-dihydro-2H-imidazo[4,5-b]pyridin-2-one]
500 to 1500	COC(=O)[C@H]1CN(c2ncnc3c2nc(-c2cnn(C)c2)n3C)CC[C@H]1n1c(=O)[nH]c2ccccc21 [Compound 317, methyl (3S,4R)-1-[9-methyl-8-(1-methyl-1H-pyrazol-4-yl)-9H-purin-6-yl]-4-(2-oxo-2,3-dihydro-1H-benzimidazol-1-yl)piperidine-3-carboxylate]
50 to 250	CCNC(=O)c1nc2c(N3CCC4(CC3)C(=O)Nc3ccccc34)ncnc2n1C [Compound 32, N-ethyl-9-methyl-6-(2-oxo-1,2-dihydro-1H-spiro[indole-3,4′-piperidin]-1′-yl)-9H-purine-8-carboxamide]
50 to 250	Cn1c(C(=O)NCc2ccncc2)nc2c(N3CCC(n4c(=O)[nH]c5ccccc54)CC3)ncnc21 [Compound 52, 9-methyl-6-[4-(2-oxo-2,3-dihydro-1H-benzimidazol-1-yl)piperidin-1-yl]-N-(pyridin-4-ylmethyl)-9H-purine-8-carboxamide]
500 to 1500	Cn1c(C(=O)N2CCC(O)C2)nc2c(N3CCC(n4c(=O)[nH]c5ccccc54)CC3)ncnc21 (stereo not shown) [Compound 73, 1-(1-[8-[(3-hydroxypyrrolidin-1-yl)carbonyl]-9-methyl-9H-purin-6-yl]piperidin-4-yl)-1,3-dihydro-2H-benzimidazol-2-one]
500 to 1500	Cn1c(C(=O)NCC2CC2)nc2c(N3CCC(n4c(=O)[nH]c5cc(Cl)ccc54)CC3)ncnc21 [Compound 228, 6-[4-(5-chloro-2-oxo-2,3-dihydro-1H-benzimidazol-1-yl)piperidin-1-yl]-N-(cyclopropylmethyl)-9-methyl-9H-purine-8-carboxamide]
250 to 500	Cn1c(C(=O)NCCO)nc2c(N3CCC4(CC3)C(=O)Nc3ccccc34)ncnc21 [Compound 25, N-(2-hydroxyethyl)-9-methyl-6-(2-oxo-1,2-dihydro-1′H-spiro[indole-3,4′-piperidin]-1′-yl)-9H-purine-8-carboxamide]
500 to 1500	Cn1c(C(=O)NCCc2ccccn2)nc2c(N3CCC(n4c(=O)[nH]c5ccccc54)CC3)ncnc21 [Compound 51, 9-methyl-6-[4-(2-oxo-2,3-dihydro-1H-benzimidazol-1-yl)piperidin-1-yl]-N-(2-pyridin-2-ylethyl)-9H-purine-8-carboxamide]
500 to 1500	CN(C)CCN1C(=O)C2(CCN(c3ncnc4c3nc(C(=O)NCC3CC3)n4C)CC2)c2ccccc21 [Compound 397, N-(cyclopropylmethyl)-6-{1-[2-(dimethylamino)ethyl]-2-oxo-1,2-dihydro-1′H-spiro[indole-3,4′-piperidin]-1′-yl}-9-methyl-9H-purine-8-carboxamide]
< 50	Cn1c(-c2nnc(C3CC3)o2)nc2c(N3CCC(n4c(=O)[nH]c5ccccc54)CC3)ncnc21 [Compound 125, 1-{1-[8-(5-cyclopropyl-1,3,4-oxadiazol-2-yl)-9-methyl-9H-purin-6-yl]piperidin-4-yl}-1,3-dihydro-2H-benzimidazol-2-one]
50 to 250	Cn1c(C(=O)N2CC(F)(F)C2)nc2c(N3CCC4(CC3)C(=O)Nc3ccccc34)ncnc21 [Compound 103, 1′-{8-[(3,3-difluoroazetidin-1-yl)carbonyl]-9-methyl-9H-purin-6-yl}spiro[indole-3,4′-piperidin]-2(1H)-one]
< 50	CCn1c(C(=O)NCC(C)(C)O)nc2c(N3CCC4(CC3)C(=O)Nc3ccccc34)ncnc21 [Compound 224, 9-ethyl-N-(2-hydroxy-2-methylpropyl)-6-(2-oxo-1,2-dihydro-1′H-spiro[indole-3,4′-piperidin]-1′-yl)-9H-purine-8-carboxamide]

SMILES	IC50 [nM]
Cn1cc(-c2nc3c(N4CCN(c5ccc(OCC6CC6)cc5)CC4)ncnc3n2C)cn1 [Compound 360]	500 to 1500
